Results reported in ChEMBL document CHEMBL1909046, “DrugMatrix in vitro pharmacology data”.

What was measured:
[1] = DRUGMATRIX: Glutamate, NMDA, Phencyclidine radioligand binding (ligand: [3H] TCP); type: cell membranes, Rattus norvegicus, Wistar, Cerebral cortex, Membrane; details: Not Active = under 50% inhibition at 10 µM
[2] = target: T1, C-X-C chemokine receptor type 2 (Homo sapiens, UniProt P25025); type: cell membranes, Membrane; details: cho-k1; further: in other assays of this panel Not Active means under 50% inhibition at 10 µM
T1 sequence (P25025 whole entry): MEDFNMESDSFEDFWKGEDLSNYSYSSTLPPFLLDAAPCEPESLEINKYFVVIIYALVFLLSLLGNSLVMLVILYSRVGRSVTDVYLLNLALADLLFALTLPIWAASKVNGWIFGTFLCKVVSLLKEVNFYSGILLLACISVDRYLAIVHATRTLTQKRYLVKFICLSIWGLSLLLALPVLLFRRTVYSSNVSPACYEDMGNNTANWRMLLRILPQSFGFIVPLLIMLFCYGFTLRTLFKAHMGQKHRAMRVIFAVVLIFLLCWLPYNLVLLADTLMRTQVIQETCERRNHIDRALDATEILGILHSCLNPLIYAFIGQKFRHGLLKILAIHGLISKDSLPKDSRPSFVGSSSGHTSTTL

[3] = target: T2, Receptor-type tyrosine-protein phosphatase C (Homo sapiens, UniProt P08575); parameters: species or system Escherichia coli;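 further: inhibition of CD45 enzyme activity measured using DiFMUP as substrate; in other assays of this panel Not Active means under 50% inhibition at 10 µM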
T2 sequence (P08575 whole entry): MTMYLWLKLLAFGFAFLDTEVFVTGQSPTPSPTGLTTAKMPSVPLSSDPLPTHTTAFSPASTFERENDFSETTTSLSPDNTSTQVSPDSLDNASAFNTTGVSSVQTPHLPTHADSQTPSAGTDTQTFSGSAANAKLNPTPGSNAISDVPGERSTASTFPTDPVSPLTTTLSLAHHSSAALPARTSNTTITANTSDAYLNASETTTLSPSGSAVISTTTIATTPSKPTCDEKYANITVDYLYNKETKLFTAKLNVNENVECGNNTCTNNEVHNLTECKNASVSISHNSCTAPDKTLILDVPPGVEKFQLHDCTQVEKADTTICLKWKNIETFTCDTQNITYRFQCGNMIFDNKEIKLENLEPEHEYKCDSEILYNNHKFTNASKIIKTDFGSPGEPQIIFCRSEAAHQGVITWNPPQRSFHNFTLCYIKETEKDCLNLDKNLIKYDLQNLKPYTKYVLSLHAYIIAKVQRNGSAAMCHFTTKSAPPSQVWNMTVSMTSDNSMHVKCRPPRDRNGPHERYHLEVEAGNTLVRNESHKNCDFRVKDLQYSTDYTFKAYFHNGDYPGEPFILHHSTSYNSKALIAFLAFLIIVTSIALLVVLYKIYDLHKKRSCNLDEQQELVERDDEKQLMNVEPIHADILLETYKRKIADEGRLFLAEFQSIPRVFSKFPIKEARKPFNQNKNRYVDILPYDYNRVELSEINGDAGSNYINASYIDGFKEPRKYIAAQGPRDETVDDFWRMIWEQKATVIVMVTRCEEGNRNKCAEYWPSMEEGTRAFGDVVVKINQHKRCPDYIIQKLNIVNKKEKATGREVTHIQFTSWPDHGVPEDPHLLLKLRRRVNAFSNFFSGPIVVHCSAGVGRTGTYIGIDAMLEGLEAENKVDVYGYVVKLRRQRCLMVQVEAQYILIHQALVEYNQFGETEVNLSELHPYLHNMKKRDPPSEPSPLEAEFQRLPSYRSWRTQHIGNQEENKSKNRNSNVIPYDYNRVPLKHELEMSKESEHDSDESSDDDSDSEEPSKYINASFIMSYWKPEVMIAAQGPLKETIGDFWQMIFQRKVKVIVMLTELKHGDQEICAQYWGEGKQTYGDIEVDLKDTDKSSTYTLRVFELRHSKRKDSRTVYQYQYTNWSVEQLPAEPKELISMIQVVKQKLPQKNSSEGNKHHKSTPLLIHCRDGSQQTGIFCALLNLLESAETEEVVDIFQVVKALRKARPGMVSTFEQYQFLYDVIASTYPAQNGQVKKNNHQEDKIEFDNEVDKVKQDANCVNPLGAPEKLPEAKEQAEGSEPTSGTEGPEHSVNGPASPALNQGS

Calcitonin receptor = target: T3, Calcitonin receptor (Homo sapiens, UniProt P30988); type: cell membranes, Membrane; details: t47d; further: in other assays of this panel Not Active means under 50% inhibition at 10 µM
T3 sequence (P30988 whole entry): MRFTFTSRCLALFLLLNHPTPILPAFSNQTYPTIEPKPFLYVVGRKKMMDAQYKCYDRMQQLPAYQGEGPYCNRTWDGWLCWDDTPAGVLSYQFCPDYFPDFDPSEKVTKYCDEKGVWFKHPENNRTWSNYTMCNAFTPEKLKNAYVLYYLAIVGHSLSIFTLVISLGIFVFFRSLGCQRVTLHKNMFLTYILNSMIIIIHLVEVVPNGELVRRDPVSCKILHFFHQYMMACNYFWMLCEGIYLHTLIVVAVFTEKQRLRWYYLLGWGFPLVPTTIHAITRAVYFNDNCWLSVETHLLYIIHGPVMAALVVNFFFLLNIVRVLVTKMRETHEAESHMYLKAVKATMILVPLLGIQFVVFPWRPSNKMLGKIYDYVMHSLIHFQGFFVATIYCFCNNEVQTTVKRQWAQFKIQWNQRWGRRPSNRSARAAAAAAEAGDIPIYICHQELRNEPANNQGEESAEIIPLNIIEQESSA

Cathepsin G = target: T4, Cathepsin G (Homo sapiens, UniProt P08311); type: tissue-based; details: neutrophil;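 further: inhibition of Cathepsin G enzyme activity, tested on an AMC-conjugated peptide substrate; in other assays of this panel Not Active means under 50% inhibition at 10 µM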
T4 sequence (P08311 whole entry): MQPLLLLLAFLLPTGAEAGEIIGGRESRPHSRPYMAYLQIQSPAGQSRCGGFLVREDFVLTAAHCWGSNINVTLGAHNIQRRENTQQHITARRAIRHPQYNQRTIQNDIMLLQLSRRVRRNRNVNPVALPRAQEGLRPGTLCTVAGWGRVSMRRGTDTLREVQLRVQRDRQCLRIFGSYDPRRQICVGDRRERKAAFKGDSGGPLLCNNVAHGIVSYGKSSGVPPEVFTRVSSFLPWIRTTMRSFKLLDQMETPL

Nitric oxide synthase 1 = Nitric oxide synthase 1 (Rattus norvegicus, UniProt P29476); type: tissue-based, Cerebellum; further: in other assays of this panel Not Active means under 50% inhibition at 10 µM
Nitric oxide synthase 1, sequence (P29476 whole entry): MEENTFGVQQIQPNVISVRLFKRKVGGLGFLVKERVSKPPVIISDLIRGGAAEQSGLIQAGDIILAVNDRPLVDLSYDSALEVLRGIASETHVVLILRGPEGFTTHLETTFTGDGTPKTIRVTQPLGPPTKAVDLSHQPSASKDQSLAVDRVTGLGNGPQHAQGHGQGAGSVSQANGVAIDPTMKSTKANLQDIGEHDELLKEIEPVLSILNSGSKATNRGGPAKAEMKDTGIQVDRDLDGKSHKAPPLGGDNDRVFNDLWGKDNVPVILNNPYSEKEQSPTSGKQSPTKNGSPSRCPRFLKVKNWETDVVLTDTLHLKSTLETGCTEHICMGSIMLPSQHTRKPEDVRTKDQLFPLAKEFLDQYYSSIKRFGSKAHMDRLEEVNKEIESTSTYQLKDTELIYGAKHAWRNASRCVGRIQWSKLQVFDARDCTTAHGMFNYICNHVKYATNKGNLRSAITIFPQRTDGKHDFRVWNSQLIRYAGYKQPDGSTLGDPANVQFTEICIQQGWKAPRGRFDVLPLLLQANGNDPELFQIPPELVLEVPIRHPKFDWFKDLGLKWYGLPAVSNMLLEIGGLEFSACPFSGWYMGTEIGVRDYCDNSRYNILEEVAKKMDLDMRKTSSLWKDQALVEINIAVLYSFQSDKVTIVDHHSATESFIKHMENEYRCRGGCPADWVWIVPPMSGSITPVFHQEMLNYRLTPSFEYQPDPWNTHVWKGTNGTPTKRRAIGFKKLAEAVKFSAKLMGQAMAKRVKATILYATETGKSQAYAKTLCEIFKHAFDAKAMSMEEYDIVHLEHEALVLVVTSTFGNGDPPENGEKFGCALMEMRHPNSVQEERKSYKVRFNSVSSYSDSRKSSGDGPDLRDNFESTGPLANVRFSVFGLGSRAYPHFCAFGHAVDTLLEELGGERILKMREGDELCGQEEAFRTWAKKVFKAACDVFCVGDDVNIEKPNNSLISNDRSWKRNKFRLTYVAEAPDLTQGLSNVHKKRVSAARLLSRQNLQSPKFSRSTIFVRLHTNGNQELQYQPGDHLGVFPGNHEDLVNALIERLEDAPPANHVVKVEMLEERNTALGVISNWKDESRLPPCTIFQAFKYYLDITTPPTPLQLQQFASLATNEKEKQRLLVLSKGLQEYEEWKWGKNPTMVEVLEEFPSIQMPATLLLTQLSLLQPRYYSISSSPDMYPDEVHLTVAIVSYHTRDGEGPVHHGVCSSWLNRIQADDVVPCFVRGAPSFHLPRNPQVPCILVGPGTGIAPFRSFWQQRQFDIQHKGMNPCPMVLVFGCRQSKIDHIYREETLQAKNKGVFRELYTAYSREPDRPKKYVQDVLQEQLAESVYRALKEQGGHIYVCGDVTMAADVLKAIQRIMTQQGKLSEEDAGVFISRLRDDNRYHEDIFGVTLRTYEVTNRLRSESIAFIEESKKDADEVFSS

Cytochrome P450 2D6 = Cytochrome P450 2D6 (Homo sapiens, UniProt P10635); details: bti-tn-5b1-4; further: in other assays of this panel Not Active means under 50% inhibition at 10 µM
Cytochrome P450 2D6, sequence (P10635 whole entry): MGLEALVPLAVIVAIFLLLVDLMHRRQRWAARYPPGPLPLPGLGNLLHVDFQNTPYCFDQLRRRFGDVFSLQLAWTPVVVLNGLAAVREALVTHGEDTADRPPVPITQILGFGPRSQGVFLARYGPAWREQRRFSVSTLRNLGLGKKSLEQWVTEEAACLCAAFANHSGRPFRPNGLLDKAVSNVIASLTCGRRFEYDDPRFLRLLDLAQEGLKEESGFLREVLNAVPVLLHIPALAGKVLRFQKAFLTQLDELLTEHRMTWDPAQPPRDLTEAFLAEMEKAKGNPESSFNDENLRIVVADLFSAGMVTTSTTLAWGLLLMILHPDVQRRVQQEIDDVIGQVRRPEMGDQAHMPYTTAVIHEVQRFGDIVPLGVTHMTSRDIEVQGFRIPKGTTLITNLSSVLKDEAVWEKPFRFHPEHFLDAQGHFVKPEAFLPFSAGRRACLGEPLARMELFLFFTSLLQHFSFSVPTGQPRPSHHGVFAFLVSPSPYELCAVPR

D(3) dopamine receptor = D(3) dopamine receptor (Homo sapiens, UniProt P35462); test: DRUGMATRIX: Dopamine D3 radioligand binding (ligand: [3H] Spiperone); type: cell membranes, CHO, Membrane
D(3) dopamine receptor, sequence (P35462 whole entry): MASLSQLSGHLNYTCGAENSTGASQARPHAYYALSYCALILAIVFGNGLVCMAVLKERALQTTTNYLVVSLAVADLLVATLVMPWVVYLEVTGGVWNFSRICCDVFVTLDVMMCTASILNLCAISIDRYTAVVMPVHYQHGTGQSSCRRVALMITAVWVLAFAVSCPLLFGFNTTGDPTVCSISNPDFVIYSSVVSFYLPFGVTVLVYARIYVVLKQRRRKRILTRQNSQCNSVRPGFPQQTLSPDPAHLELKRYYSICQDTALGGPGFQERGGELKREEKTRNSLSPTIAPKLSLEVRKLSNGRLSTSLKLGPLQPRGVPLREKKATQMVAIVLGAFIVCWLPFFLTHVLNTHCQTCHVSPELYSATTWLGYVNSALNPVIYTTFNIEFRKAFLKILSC

| Compound | IC50 [1] | Ki [1] | IC50 [2] | IC50 [3] | IC50 (Calcitonin receptor) | IC50 (Cathepsin G) | IC50 (Nitric oxide synthase 1) | IC50 (Cytochrome P450 2D6) | Ki (Cytochrome P450 2D6) | IC50 (D(3) dopamine receptor; cho) | Ki [2] | Ki [3] | Ki (Calcitonin receptor) | Ki (Cathepsin G) | Ki (Nitric oxide synthase 1) | Ki (D(3) dopamine receptor; cho) | IC50 (D(3) dopamine receptor; read-out: IC50) [nM] | Ki (D(3) dopamine receptor; read-out: Ki) [nM] |
| --- | --- | --- | --- | --- | --- | --- | --- | --- | --- | --- | --- | --- | --- | --- | --- | --- | --- | --- |
| Cc1cccc(C)c1OCC(C)N (configuration not stated) [MEXILETINE] | Not Active | Not Active | Not Active | Not Active | Not Active | Not Active | Not Active | Not Active | Not Active | Not Active |  |  |  |  |  |  |  |  |
| MANGANESE CHLORIDE ANHYDROUS | Not Active | Not Active | Not Active | Not Active | Not Active | Not Active | Not Active | Not Active | Not Active | Not Active | Not Active | Not Active | Not Active | Not Active | Not Active | Not Active |  |  |
| CCN(CC)CCNC(=O)c1cc(S(C)(=O)=O)ccc1OC [TIAPRIDE] | Not Active | Not Active | Not Active | Not Active | Not Active | Not Active | Not Active | Not Active | Not Active |  |  |  |  |  |  |  | 1150 | 390 |
| COc1c2occc2cc2ccc(=O)oc12 [METHOXSALEN] | Not Active | Not Active | Not Active | Not Active | Not Active | Not Active | Not Active | Not Active | Not Active | Not Active |  |  |  |  |  |  |  |  |
| O.O.O.O.O.O.[Cl-].[Cl-].[Sr+2] [STRONTIUM CHLORIDE HEXAHYDRATE] | Not Active | Not Active | Not Active | Not Active | Not Active | Not Active | Not Active | Not Active | Not Active | Not Active |  |  |  |  |  |  |  |  |
| CC(C)Oc1ccc2c(=O)c(-c3ccccc3)coc2c1 [IPRIFLAVONE] | Not Active | Not Active | Not Active | Not Active | Not Active | Not Active | Not Active | Not Active | Not Active | Not Active |  |  |  |  |  |  |  |  |
| COc1cc2nc(N3CCN(C(=O)C4CCCO4)CC3)nc(N)c2cc1OC (configuration not stated) [TERAZOSIN] | Not Active | Not Active | Not Active | Not Active | Not Active | Not Active | Not Active | Not Active | Not Active | Not Active |  |  |  |  |  |  |  |  |
| NC1CCN(c2nc3c(cc2F)c(=O)c(C(=O)O)cn3-c2ccc(F)cc2F)C1 (configuration not stated) [TOSUFLOXACIN] | Not Active | Not Active | Not Active | Not Active | Not Active | Not Active | Not Active | Not Active | Not Active | Not Active |  |  |  |  |  |  |  |  |
